Test results as given in patent US6613800B1, “Method and compositions for treating psoriasis, eczema, seborrhea and arthritis” (priority 2001, dated 2003).

System: psoriasis
Assay: Case studies: clinical treatment of resistant psoriasis
Assay type: in vivo, human
Conditions: Case No. 9; Methotrexate 5-10 mg per week from April 2001, Psorex stopped; summer to August 2001
Excerpt: The following case studies are presented to show results from clinical trials of the present invention on resistant cases of psoriasis, eczema and seborrhea.
A combination of Psorizide Ultra® and Psorex® was employed in some of these case studies. In others, a combination of Psorizide Ultra® and Fumaric Acid 1× was used. Psorizide Ultra® is a natural mineral homeopathic medication commercially available from Applicant's company, i.e. LOMA LUX Laboratories, 5801 E. 41st Street, Suite 200, Tulsa, Okla. 74135. This prescription drug includes active ingredients of nickel sulfate and potassium bromide.
Psorex® is a scientifically designed supplement containing reagent grade fumaric acid esters. This supplement is commercially available from Ecological Formulas at 1-800-888-4585. Each Psorex® capsule contains 120 mg fumaric acid ester.
Fumaric Acid 1×300 mg tablets are commercially available from B.H.I., 11600 Cochiti Road SE, Albuquerque, N.Mex. 87123-3376. Each Fumaric Acid 1× tablet contains approximately 30 mg of fumaric acid.
The patient is a person with a ten year history of psoriasis of the anogenital region. They had been treated with numerous topical lotions with only limited results. More recently they also developed left knee involvement and flaring of all disease sites due to surgery. They presented November 2000 complaining of itching. […]

Compound: CN(Cc1cnc2nc(N)nc(N)c2n1)c1ccc(C(=O)N[C@@H](CCC(=O)O)C(=O)O)cc1 [Methotrexate®, Methotrexate]
- clinical condition of plaque psoriasis: doing very well through the summer, but by August 2001 the psoriasis was worse
